How the values were obtained:
[1] = target: T1, Human PKK (Homo sapiens, UniProt P03952); experiment: Inhibition of PKK using an endpoint assay (human PKK); format: biochemical; settings: fluorogenic substrate H-Pro-Phe-Arg-AMC, 1 h room temperature, method names human or rat PKK, table does not say which
T1 construct: purchased Enzyme Research Laboratories
How it was run: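 Human PKK inhibition measured in 100 mM Tris, 150 mM NaCl, pH 7.8, 0.1% BSA, 0.05% Tween20, 1% DMSO. Endpoint format: reaction stopped with PPACK II at 1 μM final, fluorescence read at 355 nm excitation/460 nm emission.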

[2] = target: T2, PKK in kaolin activated human platelet poor plasma (Homo sapiens, UniProt P03952); experiment: Inhibition of PKK in kaolin activated human PPP; format: biochemical; settings: 25-750 μg/mL kaolin, global fit, text b200 calls the values IC90;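 also: readout is the rate of fluorogenic substrate cleavage in rfu per min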
T2 construct: Platelet poor plasma (PPP) obtained from human wholeblood; from tissue
T2 sequence (P03952 391-638 limits assumed): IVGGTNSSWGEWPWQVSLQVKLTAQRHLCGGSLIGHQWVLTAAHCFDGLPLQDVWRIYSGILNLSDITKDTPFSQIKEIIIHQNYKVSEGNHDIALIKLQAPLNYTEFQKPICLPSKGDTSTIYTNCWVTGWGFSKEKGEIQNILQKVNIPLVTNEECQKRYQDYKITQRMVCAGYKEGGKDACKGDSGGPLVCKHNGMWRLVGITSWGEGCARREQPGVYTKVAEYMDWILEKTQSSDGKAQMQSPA
T2 sequence (P03952 20-390 limits assumed): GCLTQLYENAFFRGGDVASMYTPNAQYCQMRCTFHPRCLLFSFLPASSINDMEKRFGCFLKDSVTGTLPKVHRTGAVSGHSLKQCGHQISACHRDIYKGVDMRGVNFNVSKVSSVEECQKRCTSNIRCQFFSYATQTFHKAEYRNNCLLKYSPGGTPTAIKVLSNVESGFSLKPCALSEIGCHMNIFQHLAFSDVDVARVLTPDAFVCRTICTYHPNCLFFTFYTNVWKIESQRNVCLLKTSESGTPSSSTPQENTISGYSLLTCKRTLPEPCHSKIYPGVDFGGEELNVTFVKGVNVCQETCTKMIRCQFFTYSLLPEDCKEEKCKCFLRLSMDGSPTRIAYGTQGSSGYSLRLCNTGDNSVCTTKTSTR
Description: Platelet poor plasma (PPP) obtained from human wholeblood, anticoagulated with Na-Citrate, is incubated with various concentrations of the test compound together with either 25, 75, 250, or 750 μg/mL kaolin in assay buffer for 20 min at 37° C. such that for each kaolin dose used a concentration response is obtained for the test compound.

T1 sequence (P03952 20-390 limits assumed): as above
T1 sequence (P03952 391-638 limits assumed): as the sequence (P03952 391-638 limits assumed) above

Row | SMILES | IC50 [1] [nM] | IC50 [2] [nM]
1 | Cn1cnc2c1CC[C@H]2NC(=O)c1cc(Cc2ccc(N3CC4CC4C3)nc2Cl)no1 (stereo partly drawn) [Example 148, 3-[(6-{3-Azabicyclo[3.1.0]hexan-3-yl}-2-chloropyridin-3-yl)methyl]-N-[(4R)-1-methyl-1H,4H,5H,6H-cyclopenta[d]imidazol-4-yl]-1,2-oxazole-5-carboxamide] | 1.4 | 985
2 | Cn1cnc2c1CC[C@H]2NC(=O)c1cc(Cc2ccc(N3CC4CC4C3)nc2CO)no1 (stereo partly drawn) [Example 149, 3-[(6-{3-Azabicyclo[3.1.0]hexan-3-yl}-2-(hydroxymethyl)pyridin-3-yl)methyl]-N-[(4R)-1-methyl-1H,4H,5H,6H-cyclopenta[d]imidazol-4-yl]-1,2-oxazole-5-carboxamide] | 1.6 | 511
3 | Cn1cnc2c1CC[C@H]2NC(=O)c1cc(Cc2ccc(N3CC4C(C3)C4(F)F)nc2Cl)no1 (stereo partly drawn) [Example 150, 3-[(2-Chloro-6-{6,6-difluoro-3-azabicyclo[3.1.0]hexan-3-yl}pyridin-3-yl)methyl]-N-[(4R)-1-methyl-1H,4H,5H,6H-cyclopenta-[d]imidazol-4-yl]-1,2-oxazole-5-carboxamide] | 1 | 373
4 | Cn1cnc2c1CC[C@H]2NC(=O)c1cc(Cc2ccc(N3CC4CC4C3)nc2)no1 (stereo partly drawn) [Example 151, 3-[(6-{3-Azabicyclo[3.1.0]hexan-3-yl}pyridin-3-yl)methyl]-N-[(4R)-1-methyl-1H,4H,5H,6H-cyclopenta[d]imidazol-4-yl]-1,2-oxazole-5-carboxamide] | 3.6 | 1140
5 | Cc1nc(N2CC3C(C2)C3(F)F)ccc1Cc1cc(C(=O)N[C@@H]2CCc3c2ncn3C)on1 (stereo partly drawn) [Example 152, 3-[(6-{6,6-Difluoro-3-azabicyclo[3.1.0]hexan-3-yl}-2-methylpyridin-3-yl)methyl]-N-[(4R)-1-methyl-1H,4H,5H,6H-cyclopenta[d]imidazol-4-yl]-1,2-oxazole-5-carboxamide] | 1.2 | 430
6 | CCc1nc(N2CC3C(C2)C3(F)F)ccc1Cc1cc(C(=O)N[C@@H]2CCc3c2ncn3C)on1 (stereo partly drawn) [Example 153, 3-[(6-{6,6-Difluoro-3-azabicyclo[3.1.0]hexan-3-yl}-2-ethylpyridin-3-yl)methyl]-N-[(4R)-1-methyl-1H,4H,5H,6H-cyclopenta[d]imidazol-4-yl]-1,2-oxazole-5-carboxamide] | 0.5 | 280
7 | Cc1nc(N2CC3CC3C2)ccc1Cc1ncc(C(=O)N[C@@H]2CCc3c2ncn3C)o1 (stereo partly drawn) [Example 154, 2-[(6-{3-Azabicyclo[3.1.0]hexan-3-yl}-2-methylpyridin-3-yl)methyl]-N-[(4R)-1-methyl-1H,4H,5H,6H-cyclopenta[d]imidazol-4-yl]-1,3-oxazole-5-carboxamide] | 9.9 | 4270
8 | Cc1nc(N2CC3C(C2)C3(F)F)ccc1Cc1ncc(C(=O)N[C@@H]2CCc3c2ncn3C)o1 (stereo partly drawn) [Example 155, 2-[(6-{6,6-Difluoro-3-azabicyclo[3.1.0]hexan-3-yl}-2-methylpyridin-3-yl)methyl]-N-[(4R)-1-methyl-1H,4H,5H,6H-cyclopenta[d]imidazol-4-yl]-1,3-oxazole-5-carboxamide] | 15.4 | 4100
9 | CCc1nc(N2CC3CC3C2)ccc1Cc1ncc(C(=O)N[C@@H]2CCc3c2ncn3C)o1 (stereo partly drawn) [Example 158, 2-[(6-{3-Azabicyclo[3.1.0]hexan-3-yl}-2-ethylpyridin-3-yl)methyl]-N-[(4R)-1-methyl-1H,4H,5H,6H-cyclopenta[d]imidazol-4-yl]-1,3-oxazole-5-carboxamide] | 4.6 | 2100
10 | Cn1cnc2c1CC[C@H]2NC(=O)c1c[nH]c(Cc2ccc(N3CC4C(C3)C4(F)F)nc2Cl)c1 (stereo partly drawn) [Example 159, 5-[(2-Chloro-6-{6,6-difluoro-3-azabicyclo-[3.1.0]hexan-3-yl}pyridin-3-yl)methyl]-N-[(4R)-1-methyl-1H,4H,5H,6H-cyclopenta[d]imidazol-4-yl]-1H-pyrrole-3-carboxamide] | 3.5 | 1140

— patent US12479827B2, “Heteroaromatic carboxamide derivatives as plasma kallikrein inhibitors” (Boehringer Ingelheim International GmbH, priority 2020, dated 2025)
